Experiments:
[1] = biological target: T1, Dual specificity mitogen-activated protein kinase kinase 1 (Homo sapiens, UniProt Q02750); assay: Inhibitory activity against Dual specificity mitogen-activated protein kinase kinase using coupled MEK assay (which uses activated Raf to activate an inactivate GST-MEK)
[2] = biological target: T1, Dual specificity mitogen-activated protein kinase kinase 1; assay: Inhibitory activity against Dual specificity mitogen-activated protein kinase kinase using direct MEK assay (which by-passes the need for activated Raf by using an activated GST-MEK)
LoVo = assay: Inhibition of LoVo human colon tumor cell proliferation
[3] = biological target: T1, Dual specificity mitogen-activated protein kinase kinase 1; assay: Inhibition of Dual specificity mitogen-activated protein kinase kinase in coupled activated Raf/MEK assay
[4] = biological target: T1, Dual specificity mitogen-activated protein kinase kinase 1; assay: Inhibition of Dual specificity mitogen-activated protein kinase kinase in direct activated MEK assay

T1 sequence (Q02750 whole entry): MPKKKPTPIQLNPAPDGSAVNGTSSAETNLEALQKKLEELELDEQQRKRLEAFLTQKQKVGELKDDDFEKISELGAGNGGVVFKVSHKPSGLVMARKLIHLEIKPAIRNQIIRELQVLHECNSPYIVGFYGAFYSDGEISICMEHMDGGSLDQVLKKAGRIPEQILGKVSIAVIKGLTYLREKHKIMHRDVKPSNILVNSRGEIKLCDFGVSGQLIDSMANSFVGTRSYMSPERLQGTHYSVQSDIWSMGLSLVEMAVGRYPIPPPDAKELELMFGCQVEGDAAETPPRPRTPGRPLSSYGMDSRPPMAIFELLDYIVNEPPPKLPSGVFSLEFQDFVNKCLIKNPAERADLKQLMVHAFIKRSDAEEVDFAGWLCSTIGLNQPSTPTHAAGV

IC50 [1] [nM] | IC50 [2] [nM] | IC50 (LoVo) [nM] | IC50 [3] [nM] | IC50 [4] [nM] | SMILES
520 | 3000 |  |  |  | COc1ccc(Nc2c(C#N)cnc3cc(OC)c(OC)cc23)cc1
21 | 300 |  |  |  | COc1cc2c(Nc3ccc(SC4CCCCC4)cc3)c(C#N)cnc2cc1OCCCN1CCOCC1
200 | 3300 |  |  |  | COc1cc2c(Nc3ccc(CC4CCCCC4)cc3)c(C#N)cnc2cc1OCCCN1CCOCC1
> 10000 | > 10000 |  |  |  | COc1cc2ncc(C#N)c(Nc3ccccc3Oc3ccccc3)c2cc1OC
4.4 | 20 |  |  |  | COc1cc2c(Nc3ccc(Cc4cccs4)cc3)c(C#N)cnc2cc1OCCCN1CCOCC1
1.1 | 5.7 | 220 |  |  | COc1cc2c(Nc3ccc(Sc4ccccc4)cc3)c(C#N)cnc2cc1OCCCN1CCOCC1
550 | 2200 |  |  |  | COc1cc2ncc(C#N)c(Nc3ccc(O)cc3)c2cc1OC
4.2 | 23 |  |  |  | COc1cc2c(Nc3ccc(Cc4ccsc4)cc3)c(C#N)cnc2cc1OCCCN1CCOCC1
99 | 250 |  |  |  | COc1ccc(Nc2c(C#N)cnc3cc(OCCCN4CCOCC4)c(OC)cc23)cc1
 |  |  | 33 | 150 | COc1cc2c(Nc3ccc(CCc4ccccc4)cc3)c(C#N)cnc2cc1OCCCN1CCOCC1
280 | 1300 |  |  |  | COc1cc2ncc(C#N)c(Nc3ccc(SC)cc3)c2cc1OC
2.7 | 14 | 210 |  |  | COc1cc2c(Nc3ccc(Cc4ccccc4)cc3)c(C#N)cnc2cc1OCCCN1CCOCC1
14 | 43 |  |  |  | COc1cc2c(Nc3ccc(Cc4ccoc4)cc3)c(C#N)cnc2cc1OCCCN1CCOCC1
20 | 66 |  |  |  | COc1cc2c(Nc3ccc(Cc4ccco4)cc3)c(C#N)cnc2cc1OCCCN1CCOCC1
110 | 320 |  |  |  | COc1cc2c(Nc3ccc(OC4CCCCC4)cc3)c(C#N)cnc2cc1OCCCN1CCOCC1
43 | 210 |  |  |  | COc1cc2ncc(C#N)c(Nc3ccc(Oc4ccc(Cl)cc4)cc3)c2cc1OC
26 | 81 |  |  |  | COc1cc2c(Nc3ccc(Oc4ccncc4)cc3)c(C#N)cnc2cc1OCCCN1CCOCC1
160 | 1200 |  |  |  | COc1cc2ncc(C#N)c(Nc3ccc(Nc4ccccc4)cc3)c2cc1OC
2.4 |  |  |  |  | COc1cc2c(Nc3ccc(Oc4ccccc4)cc3)c(C#N)cnc2cc1OCCCN1CCOCC1

From ChEMBL document CHEMBL1134081, “MEK (MAPKK) inhibitors. Part 2: structure-activity relationships of 4-anilino-3-cyano-6,7-dialkoxyquinolines” (Bioorg Med Chem Lett, 2001)
